The source of these data is patent US12410174B1, “Small molecular inhibitors of sting signaling compositions and methods of use” (TYERELL IMMUNOTHERAPEUTICS INC, priority 2020, dated 2025).

SMILES strings stand for the structures. Entries after “also recorded” stand apart in the source; their conditions may differ.

In assay [1] the test system is STING signaling. The assay is described as follows: qPCR of IFNβ1 / Cxcl10 in normal hTERT cells after ISD transfection. The assay is classed as cell-based, human. How it is done: (§1) Example 11: qPCR total RNA were reverse-transcribed using M-MLV Reverse Transcriptase (Promega). Real-time PCR was performed using Taqman Gene Expression Assay (Applied Biosystems) for innate immune genes and inflammatory cytokines.
On the technique in general: Quantitative PCR measures a nucleic acid by following its amplification.

The target in assay [2] is T1, human STING CBD-CTT (152-379) (STING152-379H) (Homo sapiens, UniProt Q86WV6).
T1 construct: Fraction containing the 237 amino acid (27 kDA) STING protein; made in house; host or cells: E. coli BL21 DE3 RIPL Codon Plus
The assay is described as follows: Thermal shift assay (TSA) for binding to purified STING. The settings on record: purified STING152-379H. The text has this:
Purified STING protein was used as bait to identify binding compounds, using a thermal shift assay (TSA). A library containing 250,000 compounds (Enamine, Monmouth Jct., NJ) was surveyed. Compounds that bound to STING were then examined for their ability to inhibit STING signaling, see Examples 1-4 vide infra. In the presence of cytosolic DNA species, STING becomes activated to drive the transcription of cytokines such as type I IFN. Compounds binding to STING via TSA were subsequently examined for their ability prevent cytosolic DNA species from activating the type I interferon (IFN) promoter, using a live cell assay. This assay comprised immortalized human fibroblasts (hTERT) that were stably transfected with the type I IFN promoter driving luciferase as well as the CMV promoter driving SEAP (hTERT-pIFNβ-Glu). The ability of the small molecules to prevent activation of the type I IFN promoter and the transcription of luciferase, but not SEAP in response to cytosolic DNA species can be assessed. The activation of STING, typically by CDNs, in turn activates the transcription factors NF-κB and IRF3, both of which are required to induce the transcriptional stimulation of the Type I IFN promoter, but not the CMV promoter (IRF3 and NF-kB transcription factor binding sites are not contained in the CMV promoter). […]

The subject of assay [3] is STING signaling. The assay is described as follows: Western blot of STING, TBK1 and IRF3 phosphorylation in MEF cells. In kind it is cell-based, murine. The settings on record: cytosolic DNA. How it is done: (§2) Example 8: Immunoblot analysis: Equal amounts of proteins were resolved on sodium dodecyl sulfate (SDS)-Polyacrylamide gels and then transferred to polyvinylidene fluoride (PVDF) membranes (Millipore). After blocking with 5% Blocking Reagent, membranes were incubated with various primary antibodies (and appropriate secondary antibodies). The image was resolved using an enhanced chemiluminescence system ECL (Thermo Scientific) and detected by autoradiography (Kodak). Antibodies: rabbit polyclonal antibody against STING was developed in our laboratory as described previously in Ishikawa et al, 2008; other antibodies were obtained from following sources: β-actin (Sigma Aldrich), p-IRF3 (Cell Signaling), IRF3 (Santa Cruz Biotechnology), p-p65 (Cell Signaling), p65 (Cell Signaling), p-TBK1 (Cell Signaling), TBK1 (Abcam), cGAS (Cell Signaling).
On the technique in general: Immunoblotting shows a protein as a band on a membrane.

For assay [4], the system named is STING signaling. The assay is described as follows: IFNβ ELISA in normal hTERT cells after ISD transfection. The assay is classed as cell-based, human. How it is done: Example 9: Interferon β Elisa analysis: Interferon β Elisa was performed using either the IFNβ human ELISA Kit from Invitrogen or the Human IFNβ ELISA Kit from PBL Interferon Source following the manufacturer's protocol.
A general note: An ELISA detects its analyte on a solid surface through an enzyme-linked reagent.

Assay [5] concerns TREX1-deficient macrophages. Description: qPCR of Cxcl10 in TREX1 knockout (TKO) bone marrow derived macrophages. In kind it is cell-based, mouse. The settings on record: TKO BMDM, compared to DMSO control. How it is done:
MEFs were obtained from E13.5 embryos by a standard procedure. Bone Marrow Derived Macro-phages (BMDM) were isolated from hind-limb femurs of 8-10 weeks old WT and Trex1 KO (TKO) mice. The hematopoietic cells from the bone marrow were cultured in complete DMEM (Invitrogen) including 10 ng/ml of Mouse Recombinant Colony-Stimulating Factor (M-CSF, R&D Systems) for 10 to 14 days.
as §1

Assay [6] deals with STING signaling. Description: Western blot of STING, pTBK1 and pIRF3 in hTERT cells after ISD transfection. In kind it is cell-based, human. The following applies: 6 hours after ISD transfection. How it is done: as §2

T1 sequence (Q86WV6 with tags, fused parts or gaps): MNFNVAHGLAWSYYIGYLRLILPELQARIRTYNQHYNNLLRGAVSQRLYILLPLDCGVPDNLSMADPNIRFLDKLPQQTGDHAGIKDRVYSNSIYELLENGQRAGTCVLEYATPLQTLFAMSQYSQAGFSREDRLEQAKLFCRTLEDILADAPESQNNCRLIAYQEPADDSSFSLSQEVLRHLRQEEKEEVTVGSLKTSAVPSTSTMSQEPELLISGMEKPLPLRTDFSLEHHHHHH

Regarding `N#Cc1c(NC(=O)c2ccccc2Cl)n(Cc2ccccc2)c2nc3ccccc3nc12` [Compound Y1, N-{1-benzyl-3-cyano-1H-pyrrolo[2,3-ß]quinoxalin-2-yl}-2-chlorobenzamide], in the assay on STING signaling [1] (normal hTERT cells stimulated with ISD, 50 μM, 25 μM or 5 μM), the “production of STING-inducible cytokine Cxcl10 (qPCR)” value is “robustly inhibited”. The “IFNβ expression (qPCR of IFNβ1)” value with STING signaling [1] (normal hTERT cells, 6 hours after ISD transfection) is “dramatically decreased IFNβ expression and production”. In addition, the “binding to STING (TSA)” value in assay [2] is “binds to and stabilizes STING; also recorded: can bind to STING”. In addition, the “phosphorylation of TBK1, IRF3 and STING (Western blot)” value in the assay on STING signaling [3] is “prevented the phosphorylation of either TBK1 or IRF3”. For the same compound, the “IFNβ production (ELISA)” value with STING signaling [4] is “dramatically decreased IFNβ expression and production”. In addition, the “Cxcl10 expression / cytokine production in TREX1-deficient macrophages (qPCR)” value in assay [5] was “can repress cytokine production in TREX1-defective cells; also recorded: dramatically decreased; also recorded: inhibits TREX1 dependent Cxcl10 expression”. Besides, the “STING, TBK1 and IRF3 phosphorylation (Western blot)” value in the assay on STING signaling [6] is “robustly prevented STING phosphorylation and subsequently TBK1 and IRF3 phosphorylation; also recorded: able to prevent the phosphorylation of STING, TBK1 and IRF3”.
